Usually IC50 stands for the point on the concentration scale where inhibition reaches its midpoint. Broadly, the EC50 is the midpoint of the concentration-response curve.

Like-named read-outs stand apart in the source and are kept apart here.

One test deals with T1, human DGKα (Homo sapiens, UniProt P23743).
T1 construct: TVMV protease cleavage site (C); Hexa-His (C); made in house; host or cells: Sf9 insect cells (baculovirus, Bac-to-Bac)
The test can be described thus: DGKα LIPGLO assay (extruded liposome substrate), in vitro DGK inhibition. In kind it is biochemical. The following applies: read-out: DGKa LIPGLO IC50.

In another test the test system is naïve human CD8 T cells. The test can be described thus: Human CD8 T cells IFN-γ assay.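 Also: Naïve human CD8 T cells stimulated with plate-bound anti-CD3 and soluble anti-CD28, IFN-γ in supernatant quantified by AlphaLISA and converted to pg/mL.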 In kind it is cell-based. The following applies: read-out: HuCD8 INFG Normalized EC50.
The next test addresses T2, human DGKζ (Homo sapiens, UniProt Q13574).
T2 construct: TVMV protease cleavage site (C); Hexa-His (C); made in house; host or cells: Sf9 insect cells (baculovirus, Bac-to-Bac)
Nature of the test: DGKζ LIPGLO assay (extruded liposome substrate), in vitro DGK inhibition. The class given is biochemical. Conditions: read-out: DGKz LIPGLO IC50.

The subject of a further test is Human venous whole blood. The test can be described thus: Human whole blood IFN-γ assay.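 Also: blood from healthy donors exposed to compound for 1 h before stimulation with anti-CD3 and anti-CD28 at 1 µg/mL each, IFN-γ quantified in supernatant by AlphaLISA.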 The class given is cell-based. The following applies: human whole blood, read-out: INFg Whole Blood Normalized Agonist EC50.
The mark [1] stands for this setting: naïve human CD8 T cells, anti-CD3 plus anti-CD28, 3 μM reference compound = 100% activation.
Where [2] appears, read: Homo sapiens, 24 h, anti-CD3 plus anti-CD28, 24 hours, 3 μM reference compound = 100% activation.
[3] abbreviates: Homo sapiens, T-cell, 20 h, normalized to 3 μM reference compound with anti-CD3 plus anti-CD28 as 100% activation.
[4] abbreviates: Homo sapiens, 24 h, normalized to 3 μM reference compound with anti-CD3 plus anti-CD28 as 100% activation.
[5] abbreviates: normalized to 3 μM reference compound with anti-CD3 plus anti-CD28 as 100% activation.

T2 sequence (Q13574 with tags, fused parts or gaps isoform Q13574-4): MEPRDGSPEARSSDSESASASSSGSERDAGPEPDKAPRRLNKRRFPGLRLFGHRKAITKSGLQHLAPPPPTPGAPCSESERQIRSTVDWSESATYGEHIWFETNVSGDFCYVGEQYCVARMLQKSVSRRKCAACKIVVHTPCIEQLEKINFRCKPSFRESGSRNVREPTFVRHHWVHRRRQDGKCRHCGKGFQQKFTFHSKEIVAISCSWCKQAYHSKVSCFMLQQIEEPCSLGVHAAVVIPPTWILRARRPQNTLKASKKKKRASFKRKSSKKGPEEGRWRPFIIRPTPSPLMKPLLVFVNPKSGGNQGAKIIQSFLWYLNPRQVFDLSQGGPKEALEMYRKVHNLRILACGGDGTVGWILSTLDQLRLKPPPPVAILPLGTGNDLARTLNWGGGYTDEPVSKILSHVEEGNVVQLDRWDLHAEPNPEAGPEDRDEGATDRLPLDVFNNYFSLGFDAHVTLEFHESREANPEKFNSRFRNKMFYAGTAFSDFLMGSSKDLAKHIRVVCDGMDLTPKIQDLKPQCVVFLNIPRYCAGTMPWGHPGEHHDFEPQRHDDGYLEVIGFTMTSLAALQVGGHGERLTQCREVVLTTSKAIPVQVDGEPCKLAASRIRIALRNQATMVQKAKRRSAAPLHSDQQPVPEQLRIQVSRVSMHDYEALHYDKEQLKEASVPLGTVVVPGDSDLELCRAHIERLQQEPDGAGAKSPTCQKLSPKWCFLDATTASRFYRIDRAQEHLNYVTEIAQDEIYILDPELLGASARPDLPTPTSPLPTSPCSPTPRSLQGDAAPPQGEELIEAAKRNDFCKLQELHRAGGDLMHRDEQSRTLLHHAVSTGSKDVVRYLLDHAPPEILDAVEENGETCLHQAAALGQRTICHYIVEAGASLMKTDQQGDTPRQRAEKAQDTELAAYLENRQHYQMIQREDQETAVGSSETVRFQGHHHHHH
T1 sequence (P23743 with tags, fused parts or gaps): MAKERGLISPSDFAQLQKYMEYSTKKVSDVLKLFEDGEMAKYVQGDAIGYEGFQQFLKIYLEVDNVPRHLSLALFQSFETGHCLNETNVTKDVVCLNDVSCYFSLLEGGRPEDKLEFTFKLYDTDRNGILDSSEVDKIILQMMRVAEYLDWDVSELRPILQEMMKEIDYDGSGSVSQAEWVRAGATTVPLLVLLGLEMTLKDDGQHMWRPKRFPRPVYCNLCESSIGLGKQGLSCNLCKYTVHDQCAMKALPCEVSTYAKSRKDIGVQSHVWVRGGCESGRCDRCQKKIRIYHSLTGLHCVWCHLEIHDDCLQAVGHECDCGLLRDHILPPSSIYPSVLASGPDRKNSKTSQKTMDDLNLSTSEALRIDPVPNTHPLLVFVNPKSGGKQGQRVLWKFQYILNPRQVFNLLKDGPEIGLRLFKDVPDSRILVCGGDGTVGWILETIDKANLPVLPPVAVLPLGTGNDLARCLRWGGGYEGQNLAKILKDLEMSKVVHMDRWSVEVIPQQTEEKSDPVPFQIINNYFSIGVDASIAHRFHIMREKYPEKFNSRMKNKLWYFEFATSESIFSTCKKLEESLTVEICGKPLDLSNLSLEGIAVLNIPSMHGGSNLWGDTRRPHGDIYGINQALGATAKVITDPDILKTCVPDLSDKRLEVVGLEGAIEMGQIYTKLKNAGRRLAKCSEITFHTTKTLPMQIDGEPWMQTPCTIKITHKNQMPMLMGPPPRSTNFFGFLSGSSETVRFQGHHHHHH
Experimental for Human venous whole blood: Human Whole Blood IFN-γ Assay
Human venous whole blood (22.5 μL per well), obtained from healthy donors, was pre-treated with compounds for one hour at 37° C. in a humidified 95% air/5% CO2 incubator. The blood was stimulated with 2.5 μL anti-human CD3 and anti-CD28 mAb at a final concentration of 1 μg/mL each for 24 hours at 37° C. IFN-γ in the supernatants was measured using AlphLISA kit (Cat # AL217).

Consider `C[C@@H]1CN(c2c(C#N)c(=O)n(C)c3ccc(C#N)nc23)CCN1C(c1ccc(F)cc1)c1ccc(Cl)cn1` (stereo partly drawn) [Example 932], for which the IC50 on human DGKα (DGKα liposome (LIPGLO) assay) worked out at 150 nM; on human DGKζ (DGKζ liposome (LIPGLO) assay) it was 1200 nM. The results for the EC50 with naïve human CD8 T cells (setting [1]) and in the test on Human venous whole blood (setting [2]) were 52 nM and 310 nM, respectively.
Take `CC[C@@H]1CN(c2cc(=O)n(C)c3ccc(C#N)nc23)[C@@H](C)CN1C(c1ccc(Cl)cc1)c1ccc(Cl)cc1` [Example 1099]: the IC50 at human DGKα (liposome (LIPGLO) assay) is 1700 nM; at human DGKζ (liposome (LIPGLO) assay), 1500 nM. In addition, the EC50 in the test with naïve human CD8 T cells (setting [3]) is 2.5 nM; in the test on Human venous whole blood (setting [4]), 220 nM.
Take `C[C@@H]1CN(c2cc(=O)n(C)c3ccc(C#N)nc23)[C@@H](C)CN1C(c1ccc(F)cc1)c1c(F)cccc1F` (single isomer, unassigned) [Example 274]: the IC50 was determined as 5700 nM on human DGKα (liposome (LIPGLO) assay) and 2500 nM on human DGKζ (liposome (LIPGLO) assay). In addition, the EC50 in the test with naïve human CD8 T cells (setting [5]) turned out to be 42 nM; in the test with Human venous whole blood (setting [4]), 3600 nM.
`CCOc1ncccc1C(c1ccc(F)cc1)N1C[C@H](C)N(c2cc(=O)n(C)c3ccc(C#N)nc23)C[C@H]1C` (single isomer, unassigned) [Example 205]: the figures for the IC50 on human DGKα (liposome (LIPGLO) assay) and on human DGKζ (liposome (LIPGLO) assay) were 37000 nM and 670 nM, respectively. Moreover, the EC50 in the test with naïve human CD8 T cells (setting [5]) came to 150 nM; in the test on Human venous whole blood (setting [4]), 990 nM.
Turning to `C[C@@H]1CN(c2cc(=O)n(C)c3ccc(C#N)nc23)[C@@H](C)CN1Cc1c(F)cccc1F` [Example 271, 8-[(2S,5R)-4-[(2,6-difluorophenyl)methyl]-2,5-dimethylpiperazin-1-yl]-5-methyl-6-oxo-5,6-dihydro-1,5-naphthyridine-2-carbonitrile], the IC50 came out at 130 nM at human DGKα (liposome (LIPGLO) assay) and 1900 nM at human DGKζ (liposome (LIPGLO) assay). For the same compound, the values for the EC50 in the test with naïve human CD8 T cells (setting [3]) and in the test on Human venous whole blood (setting [4]) were 550 nM and 1400 nM, respectively.
With `C[C@@H]1CN(c2cc(=O)n(C)c3ccc(C#N)nc23)[C@@H](C)CN1C(c1ccc(F)cc1)c1nc(C2CCOCC2)no1` (single isomer, unassigned) [Example 739], the IC50 came out at 130 nM on human DGKα (DGKα liposome (LIPGLO) assay) and 760 nM at human DGKζ (DGKζ liposome (LIPGLO) assay). Besides, the EC50 turned out to be 52 nM in the test on naïve human CD8 T cells (Homo sapiens, T-cell, 20 h, naïve human CD8 T cells, anti-CD3 plus anti-CD28, 3 μM reference compound = 100% activation) and 190 nM with Human venous whole blood (setting [2]).
For `CC[C@@H]1CN(c2cc(=O)n(C)c3ccc(C#N)nc23)[C@@H](C)CN1C(c1ccc(F)cc1)c1ccc(C#N)cc1` (single isomer, unassigned) [Example 1102], the results for the IC50 on human DGKα (liposome (LIPGLO) assay) and on human DGKζ (liposome (LIPGLO) assay) were 640 nM and 1400 nM, respectively. In addition, the EC50 with naïve human CD8 T cells (setting [3]) amounted to 31 nM; in the test on Human venous whole blood (setting [4]) it was 220 nM.
`CC(C)[C@H]1CN(c2cc(=O)n(C)c3ccc(C#N)nc23)CCN1C(c1ccc(F)cc1)c1ccc(F)cc1` [Example 10, (S)-8-(4-(bis(4-fluorophenyl)methyl)-3-isopropylpiperazin-1-yl)-5-methyl-6-oxo-5,6-dihydro-1,5-naphthyridine-2-carbonitrile]: the half-inhibitory concentration (IC50) was 97000 nM at human DGKα (liposome (LIPGLO) assay) and 5100 nM on human DGKζ (liposome (LIPGLO) assay). Also, the EC50 with naïve human CD8 T cells (setting [3]) came out at 150 nM; with Human venous whole blood (setting [4]), 5000 nM.
Turning to `C[C@@H]1CN(c2cc(=O)n(C)c3ccc(C#N)nc23)[C@@H](C)CN1C(c1ccc(F)cc1)c1cocn1` (single isomer, unassigned) [Example 710], the IC50 on human DGKα (liposome (LIPGLO) assay) amounted to 120 nM; at human DGKζ (liposome (LIPGLO) assay), 2600 nM. Also, the EC50 with naïve human CD8 T cells (setting [3]) came out at 22 nM; with Human venous whole blood (setting [5]), 550 nM.
For `Cc1ccc(C(c2cccc(Cl)c2)N2C[C@H](C)N(c3cc(=O)n(C)c4ccc(C#N)nc34)C[C@H]2C)nc1` (single isomer, unassigned) [Example 372], the IC50 on human DGKα (liposome (LIPGLO) assay) was found to be 550 nM; on human DGKζ (liposome (LIPGLO) assay) it was 270 nM. In addition, the half-maximal effective concentration (EC50) in the test with naïve human CD8 T cells (setting [5]) was found to be 22 nM; in the test with Human venous whole blood (setting [5]), 270 nM.
For `Cc1ccc(C(c2cncc(F)c2)N2C[C@H](C)N(c3cc(=O)n(C)c4ccc(C#N)nc34)C[C@H]2C)cc1` (single isomer, unassigned) [Example 391], the IC50 is 3100 nM on human DGKα (liposome (LIPGLO) assay) and 2400 nM on human DGKζ (liposome (LIPGLO) assay). Also, the EC50 was determined as 81 nM in the test with naïve human CD8 T cells (setting [3]) and 890 nM in the test with Human venous whole blood (setting [5]).
In the case of `CC[C@H]1CN(C(c2ccc(F)cc2)c2ccc(Cl)cc2)[C@H](CC)CN1c1cc(=O)n(C)c2ccc(C#N)nc12` (stereo partly drawn) [Example 1031], the IC50 on human DGKα (liposome (LIPGLO) assay) stood at 260 nM; on human DGKζ (liposome (LIPGLO) assay), 240 nM. For the same compound, the EC50 with naïve human CD8 T cells (setting [3]) was 1.3 nM; in the test with Human venous whole blood (setting [4]), 85 nM.
In the case of `C[C@@H]1CN(c2c(Cl)c(=O)n(C)c3ccc(C#N)nc23)[C@@H](C)CN1C(c1ccccc1)c1ccc(F)cc1` (single isomer, unassigned) [Example 217], the IC50 was 50000 nM at human DGKα (liposome (LIPGLO) assay) and 140000 nM on human DGKζ (liposome (LIPGLO) assay). The EC50 was found to be 7800 nM in the test on naïve human CD8 T cells (setting [3]) and 20000 nM in the test with Human venous whole blood (setting [4]).
`C[C@@H]1CN(c2cc(=O)n(C)c3ccc(C#N)nc23)[C@@H](C)CN1C(c1ccc(F)cn1)c1ccc(F)cc1F` (single isomer, unassigned) [Example 685]: the figures for the IC50 on human DGKα (liposome (LIPGLO) assay) and at human DGKζ (liposome (LIPGLO) assay) were 300 nM and 1000 nM, respectively. Moreover, the 50% effective concentration (EC50) with naïve human CD8 T cells (setting [3]) is 12 nM; with Human venous whole blood (setting [5]), 100 nM.
On to `C[C@@H]1CN(c2cc(=O)n(C)c3ccc(C#N)nc23)[C@@H](C)CN1Cc1ccccc1` [Example 264, 8-[(2S,5R)-4-benzyl-2,5-dimethylpiperazin-1-yl]-5-methyl-6-oxo-5,6-dihydro-1,5-naphthyridine-2-carbonitrile], for which the IC50 was determined as 35 nM at human DGKα (liposome (LIPGLO) assay) and 3000 nM at human DGKζ (liposome (LIPGLO) assay). In addition, the EC50 in the test with naïve human CD8 T cells (setting [3]) is 260 nM; with Human venous whole blood (setting [4]), 11000 nM.
Consider `CC[C@H]1CN(C(c2ccc(Cl)cc2)c2ccc(F)cn2)[C@H](CC)CN1c1cc(=O)n(C)c2ccc(C#N)nc12` (single isomer, unassigned) [Example 1033], for which the figures for the IC50 at human DGKα (liposome (LIPGLO) assay) and at human DGKζ (liposome (LIPGLO) assay) were 98 nM and 59 nM, respectively. Besides, the EC50 in the test with naïve human CD8 T cells (setting [5]) is 190 nM; in the test on Human venous whole blood (setting [4]), 120 nM.
On to `C[C@@H]1CN(c2cc(=O)n(C)c3ccc(C#N)nc23)[C@@H](C)CN1C(c1ccc(F)cc1)c1nc(-c2ccc(F)cc2)no1` (single isomer, unassigned) [Example 742], for which the results for the IC50 at human DGKα (DGKα liposome (LIPGLO) assay) and on human DGKζ (DGKζ liposome (LIPGLO) assay) were 150 nM and 790 nM, respectively. Also, the EC50 with naïve human CD8 T cells (setting [1]) was found to be 1.5 nM; in the test on Human venous whole blood (anti-CD3 plus anti-CD28, 24 hours, 3 μM reference compound = 100% activation), 140 nM.
With `C[C@@H]1CN(c2cc(=O)n(C)c3ccc(C#N)nc23)[C@@H](C)CN1Cc1c(Cl)cccc1C#N` [Example 260, 8-[(2S,5R)-4-[(2-chloro-6-cyanophenyl)methyl]-2,5-dimethylpiperazin-1-yl]-5-methyl-6-oxo-5,6-dihydro-1,5-naphthyridine-2-carbonitrile], the IC50 on human DGKα (liposome (LIPGLO) assay) worked out at 3800 nM; on human DGKζ (liposome (LIPGLO) assay) it was 1100 nM. Further, the EC50 with naïve human CD8 T cells (setting [3]) was 900 nM; in the test on Human venous whole blood (setting [4]) it was 4400 nM.
As to `CCc1ccc(C(c2cccc(F)c2)N2C[C@H](C)N(c3cc(=O)n(C)c4ccc(C#N)nc34)C[C@H]2C)nc1` (single isomer, unassigned) [Example 350], the IC50 came to 1900 nM at human DGKα (liposome (LIPGLO) assay) and 1800 nM at human DGKζ (liposome (LIPGLO) assay). Also, the values for the EC50 in the test with naïve human CD8 T cells (setting [5]) and with Human venous whole blood (setting [5]) were 200 nM and 850 nM, respectively.
In the case of `Cc1ccc(C(c2ccc(F)cn2)N2C[C@H](C)N(c3cc(=O)n(C)c4ccc(C#N)nc34)C[C@H]2C)cc1` (single isomer, unassigned) [Example 444], the IC50 at human DGKα (liposome (LIPGLO) assay) was 130 nM; at human DGKζ (liposome (LIPGLO) assay), 760 nM. Further, the results for the EC50 in the test with naïve human CD8 T cells (setting [3]) and with Human venous whole blood (setting [4]) were 49 nM and 510 nM, respectively.
For the compound `CCc1ccccc1C(c1ccc(F)cc1)N1C[C@H](C)N(c2cc(=O)n(C)c3ccc(OC)nc23)C[C@H]1C` (single isomer, unassigned) [Example 236], the figures for the IC50 at human DGKα (liposome (LIPGLO) assay) and on human DGKζ (liposome (LIPGLO) assay) were 240000 nM and 11000 nM, respectively. In addition, the EC50 with naïve human CD8 T cells (setting [5]) stood at 10000 nM; in the test with Human venous whole blood (setting [5]), 20000 nM.

Source of the values: patent publication US10669272B2, “Substituted naphthyridinone compounds useful as T cell activators” (BRISTOL-MYERS SQUIBB COMPANY, priority 2018, dated 2020).
